Laboratory results as given in US20140303045A1, “Biocidal Systems and Methods of Use” (Kemira Oyj, priority 2013, published 2014).
Entries after “also recorded” stand apart in the source; their conditions may differ.

Assays:
[1] = pH assessment and visual compatibility of first biocide with AMA-324 in polymer solution; assay type: physicochemical; conditions: for pH end: AMA-324 plus first biocide mixed 30 minutes, AMA-324 alone stirred 40 minutes; for pH after addition of first biocide: polymer solution with AMA-324 100 ppm plus first biocide 100 ppm (active), DBNPA 50 ppm; for Observations on adjusted pH solution: polymer solution with AMA-324 plus first biocide, after pH adjustment, visual appearance
Protocol: Seven standard polymer solutions were prepared by preparing a commercially-available polyacrylamide polymer using standard methods. The polymer was added to artificial seawater formulation (approximately 27° C., with the pH adjusted to 6.5 and buffered accordingly) and the solution was mixed utilizing a magnetic stirrer to obtain 200 mL of a 300 ppm (active) polymer solution. After mixing, the initial pH of each polymer solution was measured and recorded. The pH was measured using a calibrated bench top pH meter.
After the initial pH reading, 1 mL of the AMA-324 stock solution was added to 200 mL of the polymer solution to provide 100 ppm (active) of the biocide, and mixed for 10 minutes. The pH of the solution with the AMA-324 was then measured and recorded.
Following pH measurement of the polymer solutions containing AMA-324, 1 mL of a first biocide component stock solution (as described in Table 1) was added to each polymer mixture. The concentration of the biocide stock solutions were prepared to provide 100 ppm (active) in the polymer solution, except for DBNPA which was evaluated at 50 ppm (active). The polymer solutions with the AMA-324 and the first biocide components were mixed for 30 minutes, after which the pH was again measured.
Finally, one control experiment was performed with only the addition of AMA-324 to the polymer solution, stirred for 40 minutes with no other biocide addition.

SRB = test: Planktonic biocide efficacy, MPN enumeration, SRB; assay type: cell-based; conditions: FIG. 8 versus FIG. 14

Row | Compound | pH end [1] | pH after addition of first biocide [1] | Observations on adjusted pH solution [1] | Synergistic effect of dual biocide system with AMA-324 (SRB) | Observations on adjusted pH solution ([1]; listed as ADBAC Quat)
1 | N#CC(Br)(Br)C(N)=O [DBNPA, 2,2-dibromo-3-nitrilopropionamide] | 8.44 | 8.04 | some turbidity; also recorded: cloudy |  | 
2 | O=CCCCC=O [GLUT, Glutaraldehyde] | 9.12 | 9.29 | clear | synergistic effect | 
3 | C12-16-alkyl dimethyl benzyl ammonium chloride [ADBAC quat] | 9.18 | 9.57 | cloudy |  | some turbidity
4 | tetrakis(hydroxymethyl) phosphonium sulfate [THPS] | 7.13 | 6.8 | clear | synergistic effect | 
